Measurements as given in US11047004B2, “Thiolated nucleotide analogues for nucleic acid synthesis” (LIFE TECHNOLOGIES CORPORATION, priority 2014, dated 2021).

Key:
[1] = free amino acid in solution; cited from earlier work
[2] = biological target: calf intestinal phosphatase (CIP) (Bos taurus, UniProt P19111); assay: Phosphatase resistance: calf intestinal phosphatase (CIP) pre-treatment, then polymerase extension read-out; assay type: biochemical; conditions: 10 u/μL CIP, 37° C., 20 min, read-out by polymerase incorporation fluorescence (FIG. 4)
Experimental: As an example of this resistant, representative results from an exemplary experiment are depicted in FIG. 4. […] Phosphatase-mediated hydrolysis is reflected as a non-increasing level of fluorescence, whereas phosphatase resistance is reflected as an increase in normalized fluorescence intensity.
Two solutions were prepared as follows in 20 mM Tris HCl, pH 7.5, 20 mM NaCl, 10 mM MgCl2: (A) 80 μM of TTP, and (B) 200 μM of γ-S-TTP.
To both solution was added 1.5 μL of 10 u/μL of calf intestinal phosphatase (CIP), and the solutions were incubated at 37° C. for 20 min. The phosphatase was then removed by passing the solutions through a 10,000 molecular weight cut-off ultrafiltration membrane. The resulting solutions were then used for the polymerase extension reactions.
(§1) A solution was prepared in the same buffer as above containing 250 nM of the hairpin oligonucleotide, 16 μM of a short oligonucleotide (5′-CCCCCC-3′, acting as a signal amplifier), and 2 nM of Bst polymerase. Then 50 μL aliquots of this solution were placed in individual wells of a microtiter plate. In separate wells of the same plate were placed 50 μL aliquots of the CIP-treated solutions from above, as well as identical solutions that had not been treated with CIP. The plate was equilibrated at 37° C. in a fluorescence microplate reader, and then the dNTP solutions were mixed with the solutions of polymerase and fluorogenic hairpin oligonucleotide. The polymerase catalyzed incorporation reactions were followed by recording the fluorescence intensity changes using 490 nm for excitation and 525 nm for the emission. When a polymerase reaction occurred, an increase in the fluorescence intensity over time was detected (see FIG. 4). There was no change in fluorescence when no nucleotide incorporation reaction occurred (see FIG. 4).
A treatment of synthetically prepared γ-S-TTP with CIP can be used to remove any traces of contaminating dTTP that may be present in the preparation of γ-S-TTP.

Bst polymerase = Bst polymerase (Geobacillus stearothermophilus, UniProt P52026); assay: Polymerase extension assay with fluorescein-labeled hairpin oligonucleotide (fluorescence increase on incorporation); assay type: biochemical, Bacillus stearothermophilus; conditions: 2 nM Bst polymerase, 250 nM hairpin oligonucleotide, 37° C., ex 490 nm / em 525 nm; for polymerase incorporation reaction (fluorescence increase), CIP-treated nucleotide solution: nucleotide pre-treated with CIP
Source text: For the polymerase extension assays, a fluorescein-labeled oligonucleotide substrate was designed, and used in an assay to detect nucleotide incorporation. The labeled oligonucleotide is a hairpin-type oligonucleotide with a T-fluorescein residue located at the third position from the 3′ end. The 5′ end of the labeled oligonucleotide is a single stranded sequence 3′-AGGGGGG-5′. Thus, the first nucleotide to be inserted by a polymerase onto the 3′ end of the substrate is a TTP. The 5′ and 3′ ends of the hairpin oligonucleotide is shown below. A fluorescein is attached to the T residue, which is underlined and bolded: • TGC 3′ • […] 5′ (SEQ ID NO:83)
Without wishing to be bound by theory, it is postulated that when the third base from the 3′ end is labeled with a fluorphore (in this case the labeled nucleotide is a T), and when the 3′ terminal base is a cytosine or guanosine, then the fluorphore is in a stacked position with the 3′ terminal base, resulting in quenching the fluorescence from the fluorphore. When a thymidine is incorporated at the terminal 3′ end (e.g., via polymerase-mediated nucleotide incorporation), the fluorphore is un-quenched. This assay can be performed with the hairpin molecule described herein, or with two annealed single-strands that mimic the linear ends of this hairpin molecule.
as §1, with “Then 50 μL aliquots of this solution were placed in individual wells of a microtiter plate. In separate wells of the same plate were placed 50 μL aliquots of the CIP-treated solutions from above, as well as identical solutions that had not been treated with CIP.” left out

Sequence of calf intestinal phosphatase (CIP) (P19111 20-506 limits assumed): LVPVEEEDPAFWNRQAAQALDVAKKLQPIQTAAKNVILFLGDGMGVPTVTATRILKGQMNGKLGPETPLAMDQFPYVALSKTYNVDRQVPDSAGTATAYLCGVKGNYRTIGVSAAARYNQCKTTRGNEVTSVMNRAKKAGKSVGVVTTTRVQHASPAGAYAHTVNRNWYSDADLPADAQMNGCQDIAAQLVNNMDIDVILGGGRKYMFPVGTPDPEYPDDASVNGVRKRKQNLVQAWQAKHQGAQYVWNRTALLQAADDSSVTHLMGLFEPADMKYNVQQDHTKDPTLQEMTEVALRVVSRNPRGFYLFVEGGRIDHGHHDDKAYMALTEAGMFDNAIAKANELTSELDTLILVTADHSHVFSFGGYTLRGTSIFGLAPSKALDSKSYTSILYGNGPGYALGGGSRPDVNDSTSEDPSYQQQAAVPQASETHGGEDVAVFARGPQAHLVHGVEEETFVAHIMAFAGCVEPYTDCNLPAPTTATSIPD
Sequence of Bst polymerase (P52026 other isoform, or with tags, fused parts or gaps with the stated changes): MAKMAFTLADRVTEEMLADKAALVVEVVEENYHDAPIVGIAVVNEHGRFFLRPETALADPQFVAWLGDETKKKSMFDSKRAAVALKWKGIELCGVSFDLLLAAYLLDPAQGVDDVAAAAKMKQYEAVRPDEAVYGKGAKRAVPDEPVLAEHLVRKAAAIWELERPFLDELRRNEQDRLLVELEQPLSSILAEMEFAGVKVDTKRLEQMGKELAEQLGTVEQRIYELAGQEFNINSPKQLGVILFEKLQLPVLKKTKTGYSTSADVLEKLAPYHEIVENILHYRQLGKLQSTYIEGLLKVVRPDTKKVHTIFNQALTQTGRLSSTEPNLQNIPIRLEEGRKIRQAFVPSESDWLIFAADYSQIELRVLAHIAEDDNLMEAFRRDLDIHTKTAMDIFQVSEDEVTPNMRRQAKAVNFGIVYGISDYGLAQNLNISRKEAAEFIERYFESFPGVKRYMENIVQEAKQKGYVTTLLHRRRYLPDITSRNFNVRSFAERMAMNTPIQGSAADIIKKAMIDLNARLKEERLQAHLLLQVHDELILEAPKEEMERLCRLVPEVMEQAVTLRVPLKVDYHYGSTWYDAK

| SMILES | pKa α-carboxylic acid [1] | pKa α-amino [1] | further results |
| --- | --- | --- | --- |
| C[C@H](N)C(=O)O [Alanine] | 2.35 |  |  |
| N[C@@H](CC(=O)O)C(=O)O [Aspartic Acid] |  | 9.82 |  |
| CC[C@H](C)[C@H](N)C(=O)O [Isoleucine] |  | 9.76 |  |
| N[C@@H](Cc1ccccc1)C(=O)O [Phenylalanine] | 2.58 | 9.24 |  |
| Cc1cn([C@H]2C[C@H](O)[C@@H](COP(=O)(O)OP(=O)(O)OP(=O)(O)O)O2)c(=O)[nH]c1=O [TTP, thymidinyl-triphosphate, reference compound] |  |  | resistance to degradation by calf intestinal (alkaline) phosphatase [2]: not reflected; polymerase incorporation reaction (fluorescence increase), CIP-treated nucleotide solution (Bst polymerase): no incorporation reaction takes place |
| CC(C)[C@H](N)C(=O)O [Valine] | 2.29 |  |  |
| Cc1cn([C@H]2C[C@H](O)[C@@H](COP(=O)(O)OP(=O)(O)OP(O)(O)=S)O2)c(=O)[nH]c1=O [γ-S-TTP, γ-S-thymidinyl-triphosphate] |  |  | resistance to degradation by calf intestinal (alkaline) phosphatase [2]: resistant to the alkaline phosphatase activity; resistance to degradation by calf intestinal (alkaline) phosphatase ([2]; listed as gamma STTP): showed a resistance to phosphatase; polymerase incorporation reaction (fluorescence increase), non-treated nucleotide solution (Bst polymerase; nucleotide not treated with CIP): polymerase reactions can be detected; polymerase incorporation reaction (fluorescence increase), CIP-treated nucleotide solution (Bst polymerase): polymerase reactions can be detected |
